“Also recorded” adds a separate entry of the source.
Columns and labels:
human nSMase2 [1] = target: T1, human nSMase2 (Homo sapiens, UniProt Q9NY59); assay: Time dependence study of cambinol inhibitory activity; format: biochemical; set-up: Full length human nSMase2 cDNA with a C-terminal Flag tag; host or cells: HEK293, stably transfected; crude cell lysate used as enzyme; settings: pre-incubation up to 2 h
T1 sequence (Q9NY59 1-655): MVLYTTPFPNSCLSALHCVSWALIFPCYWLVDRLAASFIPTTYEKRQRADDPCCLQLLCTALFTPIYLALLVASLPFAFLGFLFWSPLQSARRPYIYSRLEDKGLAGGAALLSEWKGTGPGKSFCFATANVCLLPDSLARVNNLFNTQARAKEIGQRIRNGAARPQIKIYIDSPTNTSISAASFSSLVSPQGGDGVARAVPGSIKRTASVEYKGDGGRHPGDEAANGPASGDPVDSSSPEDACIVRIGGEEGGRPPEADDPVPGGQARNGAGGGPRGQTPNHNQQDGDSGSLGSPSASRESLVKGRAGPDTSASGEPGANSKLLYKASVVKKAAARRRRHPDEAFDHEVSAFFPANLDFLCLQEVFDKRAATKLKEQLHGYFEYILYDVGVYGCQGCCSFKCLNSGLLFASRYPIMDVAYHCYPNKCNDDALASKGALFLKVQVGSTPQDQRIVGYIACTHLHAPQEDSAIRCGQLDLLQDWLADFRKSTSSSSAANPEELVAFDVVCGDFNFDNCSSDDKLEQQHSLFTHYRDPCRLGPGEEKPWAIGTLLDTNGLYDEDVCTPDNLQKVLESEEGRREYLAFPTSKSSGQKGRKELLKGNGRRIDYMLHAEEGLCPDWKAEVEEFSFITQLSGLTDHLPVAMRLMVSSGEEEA
Procedure: ^bCambinol IC50 values were determined from 8-points dose response curves run in duplicate.

SIRT1 = settings: NAD-dependent deacetylase activity; cited from earlier work
rat nSMase2 = target: T2, rat nSMase2 (Rattus norvegicus, UniProt O35049); assay: Fluorescence assay with rat brain homogenate membrane fraction; format: biochemical; settings: rat brain homogenates
T2 construct: A membrane protein-enriched fraction of rat brain homogenate was used as the source for nSMase2; from tissue; host or cells: rat brain homogenate, membrane protein-enriched fraction
T2 sequence (O35049 1-655): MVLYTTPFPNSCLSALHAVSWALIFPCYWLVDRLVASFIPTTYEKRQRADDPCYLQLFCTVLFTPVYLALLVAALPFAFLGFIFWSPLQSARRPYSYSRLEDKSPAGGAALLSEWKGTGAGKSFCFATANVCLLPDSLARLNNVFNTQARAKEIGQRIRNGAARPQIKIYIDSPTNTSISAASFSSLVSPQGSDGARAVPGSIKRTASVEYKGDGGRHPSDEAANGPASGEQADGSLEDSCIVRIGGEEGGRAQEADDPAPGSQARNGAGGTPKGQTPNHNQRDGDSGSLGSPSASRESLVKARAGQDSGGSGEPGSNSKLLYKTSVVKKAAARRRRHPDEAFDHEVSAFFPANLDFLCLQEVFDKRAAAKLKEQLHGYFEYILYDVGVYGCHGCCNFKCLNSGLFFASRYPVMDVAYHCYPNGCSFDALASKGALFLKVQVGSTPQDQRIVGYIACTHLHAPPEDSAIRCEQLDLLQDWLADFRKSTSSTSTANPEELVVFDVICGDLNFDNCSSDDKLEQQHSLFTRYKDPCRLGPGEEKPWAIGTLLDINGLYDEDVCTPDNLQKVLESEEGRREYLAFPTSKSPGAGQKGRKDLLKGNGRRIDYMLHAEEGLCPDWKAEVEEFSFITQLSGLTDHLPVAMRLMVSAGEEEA

[2] = system: Burkitt lymphoma xenografts; set-up: method as in PMID 16618762; settings: mice, cited from earlier work
macrophages = settings: cited from earlier work
human nSMase2 [3] = target: T1, human nSMase2; assay: Fluorescence (Amplex red coupled) nSMase2 activity assay; format: biochemical; set-up: Full length human nSMase2 cDNA with a C-terminal Flag tag; crude cell lysate used as enzyme
Procedure: The production of the latter was coupled to a dephosphorylation reaction catalyzed by alkaline phosphatase (4 U/ml) to produce choline, followed by oxidation of choline by choline oxidase (0.1 U/ml) to produce betaine and H2O2, which in the presence of horseradish peroxidase (HRP, 1U/ml) and 50 μM Amplex red, generates the fluorescent molecule resorufin (Life Technologies). Substrate stock solution was prepared in 2% Triton X-100, vortexed and sonicated for 30 min. Reactions were carried out for 1 h at 37°C in 100 mM Tris-HCl pH 7.4, 10 mM MgCl2, 0.2% Triton X-100 and the generation of the fluorescent product was monitored by measuring relative florescence units (RFU) with excitation at 530 nm and emission at 590 nm (Fig 1). This assay was optimized for 384-well format (50 μl total volume per well) based on linearity of the enzymatic activity with respect to time, as well as substrate and enzyme concentrations. […] This fluorescence assay was used for compound screening and IC50 value determinations, based on duplicate eight-point dose response curves.

Structure (SMILES): O=c1[nH]c(=S)[nH]c(-c2ccccc2)c1Cc1c(O)ccc2ccccc12 [Cambinol, cambinol]
- time dependence of inhibition (human nSMase2 [1]): did not change; also recorded: independent of pre-incubation time
- IC50 (SIRT1): 56 µM
- IC50 (rat nSMase2): 6 µM
- tolerability ([2]; doses as high as 100 mg/kg intravenously): well tolerated
- anti-cancer efficacy [2]: effective
- TNF-α and IL-6 release (macrophages): effectively inhibited
- 1/V (human nSMase2 [3]; 1/[SM] 0.002 µM^-1, 2 µM Cambinol): 0.00052 h/RFU
- 1/V (human nSMase2 [3]; 1/[SM] 0.002 µM^-1, 3 µM Cambinol): 0.00066 h/RFU
- 1/V (human nSMase2 [3]; 1/[SM] 0.002 µM^-1, 5 µM Cambinol): 0.00102 h/RFU
- 1/V (human nSMase2 [3]; 1/[SM] 0.003 µM^-1, 2 µM Cambinol): 0.00062 h/RFU
- 1/V (human nSMase2 [3]; 1/[SM] 0.003 µM^-1, 3 µM Cambinol): 0.00078 h/RFU
- 1/V (human nSMase2 [3]; 1/[SM] 0.003 µM^-1, 5 µM Cambinol): 0.00109 h/RFU
- 1/V (human nSMase2 [3]; 1/[SM] 0.006 µM^-1, 2 µM Cambinol): 0.00075 h/RFU
- 1/V (human nSMase2 [3]; 1/[SM] 0.006 µM^-1, 3 µM Cambinol): 0.00095 h/RFU
- 1/V (human nSMase2 [3]; 1/[SM] 0.006 µM^-1, 5 µM Cambinol): 0.00128 h/RFU
- 1/V (human nSMase2 [3]; 1/[SM] 0.013 µM^-1, 2 µM Cambinol): 0.00096 h/RFU
- 1/V (human nSMase2 [3]; 1/[SM] 0.013 µM^-1, 3 µM Cambinol): 0.00118 h/RFU
- 1/V (human nSMase2 [3]; 1/[SM] 0.013 µM^-1, 5 µM Cambinol): 0.00146 h/RFU
- V (human nSMase2 [3]; [SM] 19.5 µM, 2 µM Cambinol): 641 RFU/h
- V (human nSMase2 [3]; [SM] 19.5 µM, 3 µM Cambinol): 571 RFU/h
- V (human nSMase2 [3]; [SM] 19.5 µM, 5 µM Cambinol): 500 RFU/h
- V (human nSMase2 [3]; [SM] 39.0 µM, 2 µM Cambinol): 752 RFU/h
- V (human nSMase2 [3]; [SM] 39.0 µM, 3 µM Cambinol): 663 RFU/h
- V (human nSMase2 [3]; [SM] 39.0 µM, 5 µM Cambinol): 567 RFU/h
- V (human nSMase2 [3]; [SM] 78.0 µM, 2 µM Cambinol): 1042 RFU/h
- V (human nSMase2 [3]; [SM] 78.0 µM, 3 µM Cambinol): 849 RFU/h
- V (human nSMase2 [3]; [SM] 78.0 µM, 5 µM Cambinol): 684 RFU/h
- V (human nSMase2 [3]; [SM] 156.0 µM, 2 µM Cambinol): 1336 RFU/h
- V (human nSMase2 [3]; [SM] 156.0 µM, 3 µM Cambinol): 1055 RFU/h
- V (human nSMase2 [3]; [SM] 156.0 µM, 5 µM Cambinol): 784 RFU/h
- V (human nSMase2 [3]; [SM] 313.0 µM, 2 µM Cambinol): 1621 RFU/h
- V (human nSMase2 [3]; [SM] 313.0 µM, 3 µM Cambinol): 1288 RFU/h
- V (human nSMase2 [3]; [SM] 313.0 µM, 5 µM Cambinol): 922 RFU/h
- mode of inhibition (MOI) (human nSMase2 [3]; human nSMase2): uncompetitive

From paper PMC4444023 (PLoS ONE, 2015)
